In paper PMC3170524 (Physiological research / Academia Scientiarum Bohemoslovaca, 2010) one finds EC50 data, which are given here for one compound.

Substitutions are numbered along the chain they refer to.

What all share (experiment): whole-cell patch clamp, peak current dose-response
What all share (format): cell-based
A general note: The patch-clamp technique gives a direct electrical read-out from membranes.

The target in experiment [1] is T1, rat P2X4R (Rattus norvegicus, UniProt P51577, C132T).
T1 sequence (P51577 1-388 C132T): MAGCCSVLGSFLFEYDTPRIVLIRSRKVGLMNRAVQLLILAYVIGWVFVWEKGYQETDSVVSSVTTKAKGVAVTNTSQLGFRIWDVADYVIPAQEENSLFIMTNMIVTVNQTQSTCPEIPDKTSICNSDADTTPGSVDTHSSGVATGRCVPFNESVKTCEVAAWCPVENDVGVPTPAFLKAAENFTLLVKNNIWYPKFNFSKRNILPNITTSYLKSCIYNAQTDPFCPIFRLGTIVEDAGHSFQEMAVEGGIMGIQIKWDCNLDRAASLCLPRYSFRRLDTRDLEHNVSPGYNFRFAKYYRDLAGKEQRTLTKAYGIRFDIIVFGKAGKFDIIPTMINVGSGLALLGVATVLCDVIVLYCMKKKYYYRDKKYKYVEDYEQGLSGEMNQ

In experiment [2] the target is T2, rat P2X4R (Rattus norvegicus, UniProt P51577, C126T/C149T).
T2 sequence (P51577 1-388 C126T/C149T): T1 sequence (P51577 1-388 C132T) with C126T, T132C, C149T

In experiment [3] the target is T3, rat P2X4R (Rattus norvegicus, UniProt P51577, C159A).
T3 sequence (P51577 1-388 C159A): T1 sequence (P51577 1-388 C132T) with T132C, C159A

Experiment [4] deals with T4, rat P2X4R (Rattus norvegicus, UniProt P51577, C116T).
T4 sequence (P51577 1-388 C116T): T1 sequence (P51577 1-388 C132T) with C116T, T132C

Experiment [5] has as its target T5, rat P2X4R (Rattus norvegicus, UniProt P51577, C116T/C165T).
T5 sequence (P51577 1-388 C116T/C165T): T1 sequence (P51577 1-388 C132T) with C116T, T132C, C165T

Experiment [6] deals with T6, rat P2X4R (Rattus norvegicus, UniProt P51577, C159T).
T6 sequence (P51577 1-388 C159T): T1 sequence (P51577 1-388 C132T) with T132C, C159T

For experiment [7], the target named is T7, rat P2X4R (Rattus norvegicus, UniProt P51577, C217T).
T7 sequence (P51577 1-388 C217T): T1 sequence (P51577 1-388 C132T) with T132C, C217T

The term EC50 denotes the midpoint of the concentration-response curve. A lower EC50 goes with a more potent agent. For the compound `Nc1ncnc2c1ncn2[C@@H]1O[C@H](COP(=O)(O)OP(=O)(O)OP(=O)(O)O)[C@@H](O)[C@H]1O` [ATP], the EC50 in experiment [1] stood at 8.2 ± 2.1 µM; in experiment [2], 65 ± 24 µM; in experiment [3] it was 5.1 ± 1.4 µM; in experiment [4], 21 ± 4.1 µM; in experiment [5] it was 57 ± 19 µM; in experiment [6], 12 ± 4.1 µM. In experiment [7], this compound returned an EC50 of 7.2 ± 2.9 µM.
